Key:
[1] = test system: patients with acute gout flare (acute gouty arthritic attack); experiment: Same acute gout flare study: safety (treatment emergent adverse events); format: in vivo, human
Source text: A sufficient number of patients are screened to enroll and randomize 300 patients (100 patients per treatment group) who meet the criteria of the American College of Rheumatology (ACR) for acute arthritis of gout. […] Secondary objectives of the study are to compare low-dose and standard-dose dosing regimens of colchicine with respect to pain, time to response and complete pain relief, interference with sleep, and signs and symptoms of inflammation and to determine the safety of colchicine when administered in the two different dosing regimens.
Safety assessments will be made based on patient and Investigator inputs. Patients will be initially screened in the clinic for inclusion by review of medical history and concomitant medication use, physical examination, measurement of vital signs (oral temperature, sitting radial or brachial pulse rate, respiratory rate, and sitting blood pressure), body weight, and clinical laboratory testing (serum biochemistry, complete blood count, and urinalysis). After randomization, clinical laboratory tests, concomitant medication use, medical history and current complaints (AE) will be reviewed every 3 months until an acute gout flare occurs in order to ensure continued eligibility. Compliance with key inclusion/exclusion criteria (based on intervening medical history and concomitant medication use) will be re confirmed by the Gout Flare Call Center prior to authorizing the start of study drug. Following the start of study drug, patients will record any severe gastrointestinal AEs on their diaries and these will be recorded in the Case Report Form (CRF) at each clinic visit. Full physical examinations and clinical laboratory testing will be conducted at the final clinic visit (Visit 4 or Visit 5). Vital signs and body weight will be measured at each Post Flare visit (Visit 3 and 4 or 5). For those patients in whom there is an unresolved AE or clinically significant treatment emergent laboratory abnormality, there will be one additional follow up visit 14 days post flare onset (Visit 6).
Safety analysis will be performed by coding adverse events using a standardized medical dictionary and the incidence summarized by treatment group; tabulations will be prepared of all AEs as well as by relationship and by severity. Adverse events resulting in termination and events meeting regulatory criteria for seriousness will also be tabulated separately. Descriptive statistics (mean, median, standard deviation, and range) of clinical laboratory testing results and vital sign measurements will be generated for each treatment group and change from the most recent value prior to onset of the acute gout flare calculated; no inferential testing will be performed. Treatment emergent abnormalities on physical examination will be tabulated and listed by treatment group. By patient listings of all safety data and concomitant medication use will be generated.

clinical = conditions: human, plasma, oral, 1.8 mg, N = 13; for Cmax: low-dose regimen 1.8 mg (2 x 0.6 mg, then 0.6 mg 1 hour later), fasting healthy adults; for Tmax / half-life: low-dose regimen 1.8 mg, healthy adults; for Tmax: time after the initial dose
Protocol: This study was a single-center, single-period, open-label pharmacokinetic study conducted in healthy subjects under fasting conditions.
Subjects received 2×0.6 mg tablets initially followed by 1×0.6 mg tablet 1 hour later.

In the case of `COc1cc2c(c(OC)c1OC)-c1ccc(OC)c(=O)cc1[C@@H](NC(C)=O)CC2` [Colchicine, (−)-N-[(7S,12aS)-1,2,3,10-tetramethoxy-9-oxo-5,6,7,9-tetrahydrobenzo[a]heptalen-7-yl]-acetamide], the “Patients with severe TEAE: Gout” value ([1]; All colchicine, N = 126) is reported as 0 n, the “Patients with severe TEAE: Metabolism and Nutrition Disorders” value ([1]; All colchicine, N = 126) is reported as 0 n and the “Number (%) of patients with a TEAE discontinuing study” value ([1]; High dose 4.8 mg, N = 52) is reported as 0 n (%). The “Number (%) of patients with a treatment emergent SAE” value ([1]; High dose 4.8 mg, N = 52) was 0 n (%), the “Number (%) of patients with at least one TEAE” value ([1]; High dose 4.8 mg, N = 52) was 40 (76.9) n (%) and the “Number (%) of patients with at least one mild TEAE” value ([1]; High dose 4.8 mg, N = 52) was 15 (28.8) n (%). For the same compound, the “Number (%) of patients with at least one moderate TEAE” value ([1]; High dose 4.8 mg, N = 52) was 15 (28.8) n (%), the “Number (%) of patients with at least one severe TEAE” value ([1]; High dose 4.8 mg, N = 52) was 10 (19.2) n (%) and the “Total number of TEAEs” value ([1]; High dose 4.8 mg, N = 52, safety population) was 85. For the same compound, the “Patients with at least one drug-related TEAE” value ([1]; High dose, N = 52) was 38 (73.1) n (%), the “Patients with drug-related TEAE: Diarrhea” value ([1]; High dose, N = 52) was 38 (73.1) n (%) and the “Patients with drug-related TEAE: Gastro-intestinal Disorders” value ([1]; High dose, N = 52) was 38 (73.1) n (%). For the same compound, the “Patients with drug-related TEAE: Nausea” value ([1]; High dose, N = 52) was 7 (13.5) n (%), the “Patients with drug-related TEAE: Vomiting” value ([1]; High dose, N = 52) was 8 (15.4) n (%) and the “Patients with severe TEAE: Diarrhea” value ([1]; High dose, N = 52) was 19.2%. The “Patients with severe TEAE: Gout” value ([1]; High dose, N = 52) was 0 n, the “Patients with severe TEAE: Metabolism and Nutrition Disorders” value ([1]; High dose, N = 52) was 0 n and the “Number (%) of patients with a TEAE discontinuing study” value ([1]; Low dose 1.8 mg, N = 74) was 0 n (%). The “Number (%) of patients with a treatment emergent SAE” value ([1]; Low dose 1.8 mg, N = 74) was 0 n (%), the “Number (%) of patients with at least one TEAE” value ([1]; Low dose 1.8 mg, N = 74) was 27 (36.5) n (%) and the “Number (%) of patients with at least one mild TEAE” value ([1]; Low dose 1.8 mg, N = 74) was 19 (25.7) n (%). For the same compound, the “Number (%) of patients with at least one moderate TEAE” value ([1]; Low dose 1.8 mg, N = 74) was 8 (10.8) n (%), the “Number (%) of patients with at least one severe TEAE” value ([1]; Low dose 1.8 mg, N = 74) was 0 n (%) and the “Number (%) of patients with at least one treatment-emergent gastrointestinal AE, captured on Adverse Event CRF, All” value ([1]; Low dose 1.8 mg, N = 74) was 19 (25.7) Number (%). For the same compound, the “Number (%) of patients with at least one treatment-emergent gastrointestinal AE, captured on Adverse Event CRF, Severe” value ([1]; Low dose 1.8 mg, N = 74) was 0 Number (%), the “Number (%) of patients with at least one treatment-emergent gastrointestinal AE, captured on Patient Diary or Adverse Event CRF, All” value ([1]; Low dose 1.8 mg, N = 74) was 33 (44.6) Number (%) and the “Number (%) of patients with at least one treatment-emergent gastrointestinal AE, captured on Patient Diary or Adverse Event CRF, Severe” value ([1]; Low dose 1.8 mg, N = 74) was 3 (4.1) Number (%). The “Number (%) of patients with at least one treatment-emergent gastrointestinal AE, captured on Patient Diary, Severe” value ([1]; Low dose 1.8 mg, N = 74) was 3 (4.1) Number (%), the “Total number of TEAEs” value ([1]; Low dose 1.8 mg, N = 74, safety population) was 34 and the “Patients with at least one severe TEAE (any)” value ([1]; Low dose, N = 74) was 0 n. The “Patients with drug-related TEAE: Diarrhea” value ([1]; Low dose, N = 74) was 21.6%, the “Patients with drug-related TEAE: Gastro-intestinal Disorders” value ([1]; Low dose, N = 74) was 24.3% and the “Patients with drug-related TEAE: Vomiting” value ([1]; Low dose, N = 74) was 0 n. For the same compound, the “Patients with severe TEAE: Diarrhea” value ([1]; Low dose, N = 74) was 0 n, the “Patients with severe TEAE: Gastrointestinal Disorders” value ([1]; Low dose, N = 74) was 0 n and the “Patients with severe TEAE: Gout” value ([1]; Low dose, N = 74) was 0 n. The “Patients with severe TEAE: Melaena” value ([1]; Low dose, N = 74) was 0 n, the “Patients with severe TEAE: Metabolism and Nutrition Disorders” value ([1]; Low dose, N = 74) was 0 n and the “Patients with severe TEAE: Musculoskeletal and Connective Tissue Disorders” value ([1]; Low dose, N = 74) was 0 n. The “Patients with severe TEAE: Nausea” value ([1]; Low dose, N = 74) was 0 n, the “Patients with severe TEAE: Pain in Extremity” value ([1]; Low dose, N = 74) was 0 n and the “Number (%) of patients with at least one treatment-emergent gastrointestinal AE, captured on Adverse Event CRF, All” value ([1]; Standard dose 4.8 mg, N = 52) was 40 (76.9)^2 Number (%). For the same compound, the “Number (%) of patients with at least one treatment-emergent gastrointestinal AE, captured on Adverse Event CRF, Severe” value ([1]; Standard dose 4.8 mg, N = 52) was 10 (19.2) Number (%), the “Number (%) of patients with at least one treatment-emergent gastrointestinal AE, captured on Patient Diary or Adverse Event CRF, All” value ([1]; Standard dose 4.8 mg, N = 52) was 49 (94.2)^2 Number (%) and the “Number (%) of patients with at least one treatment-emergent gastrointestinal AE, captured on Patient Diary or Adverse Event CRF, Severe” value ([1]; Standard dose 4.8 mg, N = 52) was 18 (34.6) Number (%). The “Number (%) of patients with at least one treatment-emergent gastrointestinal AE, captured on Patient Diary, All” value ([1]; Standard dose 4.8 mg, N = 52) was 48 (92.3)^2 Number (%), the “Number (%) of patients with at least one treatment-emergent gastrointestinal AE, captured on Patient Diary, Severe” value ([1]; Standard dose 4.8 mg, N = 52) was 13 (25.0) Number (%) and the “Proportion of patients with vomiting” value ([1]; high-dose 4.8 mg) was 15.4%. The “Occurrence of severe diarrhea” value ([1]; low-dose group 1.8 mg) was “not occurring”, the Occurrence of vomiting ([1]; low-dose group 1.8 mg) was “not occurring” and the “Proportion of patients with diarrhea” value ([1]; standard dose 4.8 mg) was 73.1%. The “Proportion of patients with gastrointestinal side effects” value ([1]; standard dose 4.8 mg) was 73.1%, the Cmax (clinical; MEAN) was 6.19 ng/mL and the Cmax (clinical; MEDIAN) was 5.68 ng/mL. For the same compound, the Tmax (clinical; MEAN) was 1.81 h, the Tmax (clinical; MEDIAN) was 2 h and the half-life (clinical; t1/2, MEAN) was 23.6 h. It also gave a half-life (clinical; t1/2, MEDIAN) of 21.6 h.
